Key:
ISC-enriched organoids [1] = assay: Primary screen, 384-well 2.5-D organoid differentiation (ENR+CD, 6 days): basal lysozyme secretion (LYZ.NS); type: cell-based, murine; conditions: for Dose.FC.LYZ.NS (log 2 fold change) / Dose.FC.LYZ.NS (log 2 fold change, basal lysozyme secretion): vs plate median; for Dose.FC.LYZ.NS: FC vs plate median; for Z.LYZ.NS: standard z score; for SSMD.LYZ.NS: strictly standardized mean difference
Source text: (§1) High-throughput screening.

ISC-enriched organoids [2] = assay: Primary screen, 384-well 2.5-D organoid differentiation (ENR+CD, 6 days): carbachol-induced lysozyme secretion (LYZ.S); type: cell-based, murine; conditions: for Dose.FC.LYZ.S (log 2 fold change) / Dose.FC.LYZ.S / Z.LYZ.S / SSMD.LYZ.S: primary screen; for Dose.FC.LYZ.S (log 2 fold change) / Dose.FC.LYZ.S (log 2 fold change, carbachol-induced lysozyme secretion): vs plate median; for Dose.FC.LYZ.S: FC vs plate median; for Z.LYZ.S: standard z score; for SSMD.LYZ.S: strictly standardized mean difference
Source text: as §1

ISC-enriched organoids [3] = assay: Primary screen, 384-well 2.5-D organoid differentiation (ENR+CD, 6 days, Target Selective Inhibitor Library, vs whole-plate median): ATP (CellTiter-Glo 3D, CTG); conditions: for Dose.FC.CTG (log 2 fold change) / Dose.FC.CTG (log 2 fold change, ATP): vs plate median; for Dose.FC.CTG: FC vs plate median; for Z.CTG: standard z score; for SSMD.CTG: strictly standardized mean difference
[4] = primary screen, 1st of the 4 dose lines of the treatment (dose not given)
[5] = primary screen, 2nd of the 4 dose lines of the treatment (dose not given)
[6] = primary screen, 3rd of the 4 dose lines of the treatment (dose not given)
[7] = primary screen, 4th of the 4 dose lines of the treatment (dose not given)
[8] = 1st of the 4 dose lines of the treatment (dose not given)
[9] = 2nd of the 4 dose lines of the treatment (dose not given)
[10] = 3rd of the 4 dose lines of the treatment (dose not given)
[11] = 4th of the 4 dose lines of the treatment (dose not given)

Compound: O=[N+]([O-])c1ccc2c(c1)S(=O)(=O)C=C2 [Stattic]
- Z.LYZ.NS (standard z score) (ISC-enriched organoids [1]; Dose 0.08 uM, primary screen): 1.131
- Dose.FC.LYZ.NS (log 2 fold change) (ISC-enriched organoids [1]; Dose 0.08 uM, primary screen): 0.130
- Z.LYZ.NS (standard z score) (ISC-enriched organoids [1]; Dose 0.40 uM, primary screen): 0.189
- Dose.FC.LYZ.NS (log 2 fold change) (ISC-enriched organoids [1]; Dose 0.40 uM, primary screen): 0.022
- Z.LYZ.NS (standard z score) (ISC-enriched organoids [1]; Dose 2.00 uM, primary screen): 1.276
- Dose.FC.LYZ.NS (log 2 fold change) (ISC-enriched organoids [1]; Dose 2.00 uM, primary screen): 0.147
- Z.LYZ.NS (standard z score) (ISC-enriched organoids [1]; Dose 10.00 uM, primary screen): −0.186
- Dose.FC.LYZ.NS (log 2 fold change) (ISC-enriched organoids [1]; Dose 10.00 uM, primary screen): −0.021
- Dose.FC.LYZ.S (log 2 fold change) (ISC-enriched organoids [2]; Dose 0.08 uM): 0.150
- Dose.FC.LYZ.S (log 2 fold change) (ISC-enriched organoids [2]; Dose 0.40 uM): 0.033
- Dose.FC.LYZ.S (log 2 fold change) (ISC-enriched organoids [2]; Dose 2.00 uM): 0.082
- Dose.FC.LYZ.S (log 2 fold change) (ISC-enriched organoids [2]; Dose 10.00 uM): −0.019
- Z.CTG (standard z score) (ISC-enriched organoids [3]; Dose 0.08 uM, primary screen): −0.191
- Dose.FC.CTG (log 2 fold change) (ISC-enriched organoids [3]; Dose 0.08 uM, primary screen): −0.080
- Z.CTG (standard z score) (ISC-enriched organoids [3]; Dose 0.40 uM, primary screen): −0.011
- Dose.FC.CTG (log 2 fold change) (ISC-enriched organoids [3]; Dose 0.40 uM, primary screen): −0.005
- Z.CTG (standard z score) (ISC-enriched organoids [3]; Dose 2.00 uM, primary screen): 0.078
- Dose.FC.CTG (log 2 fold change) (ISC-enriched organoids [3]; Dose 2.00 uM, primary screen): 0.033
- Z.CTG (standard z score) (ISC-enriched organoids [3]; Dose 10.00 uM, primary screen): −0.060
- Dose.FC.CTG (log 2 fold change) (ISC-enriched organoids [3]; Dose 10.00 uM, primary screen): −0.025

Compound: C[C@H](NC(=O)Cc1cc(F)cc(F)c1)C(=O)N[C@@H]1C(=O)N(C)c2ccccc2-c2ccccc21 [YO-01027]
- Z.LYZ.NS (standard z score) (ISC-enriched organoids [1]; dose 0.08 uM): 0.443
- Dose.FC.LYZ.NS (log 2 fold change, basal lysozyme secretion) (ISC-enriched organoids [1]; dose 0.08 uM): 0.051
- Z.LYZ.NS (standard z score) (ISC-enriched organoids [1]; dose 0.40 uM): 0.739
- Dose.FC.LYZ.NS (log 2 fold change, basal lysozyme secretion) (ISC-enriched organoids [1]; dose 0.40 uM): 0.085
- Z.LYZ.NS (standard z score) (ISC-enriched organoids [1]; dose 2.00 uM): −0.699
- Dose.FC.LYZ.NS (log 2 fold change, basal lysozyme secretion) (ISC-enriched organoids [1]; dose 2.00 uM): −0.080
- Z.LYZ.NS (standard z score) (ISC-enriched organoids [1]; dose 10.00 uM): −1.369
- Dose.FC.LYZ.NS (log 2 fold change, basal lysozyme secretion) (ISC-enriched organoids [1]; dose 10.00 uM): −0.157
- Dose.FC.LYZ.S (log 2 fold change, carbachol-induced lysozyme secretion) (ISC-enriched organoids [2]; dose 0.08 uM): 0.105
- Dose.FC.LYZ.S (log 2 fold change, carbachol-induced lysozyme secretion) (ISC-enriched organoids [2]; dose 0.40 uM): −0.058
- Dose.FC.LYZ.S (log 2 fold change, carbachol-induced lysozyme secretion) (ISC-enriched organoids [2]; dose 2.00 uM): −0.020
- Dose.FC.LYZ.S (log 2 fold change, carbachol-induced lysozyme secretion) (ISC-enriched organoids [2]; dose 10.00 uM): −0.184
- Z.CTG (standard z score) (ISC-enriched organoids [3]; dose 0.08 uM): 0.528
- Dose.FC.CTG (log 2 fold change, ATP) (ISC-enriched organoids [3]; dose 0.08 uM): 0.221
- Z.CTG (standard z score) (ISC-enriched organoids [3]; dose 0.40 uM): −1.135
- Dose.FC.CTG (log 2 fold change, ATP) (ISC-enriched organoids [3]; dose 0.40 uM): −0.475
- Z.CTG (standard z score) (ISC-enriched organoids [3]; dose 2.00 uM): −1.363
- Dose.FC.CTG (log 2 fold change, ATP) (ISC-enriched organoids [3]; dose 2.00 uM): −0.571
- Z.CTG (standard z score) (ISC-enriched organoids [3]; dose 10.00 uM): −2.464
- Dose.FC.CTG (log 2 fold change, ATP) (ISC-enriched organoids [3]; dose 10.00 uM): −1.032

Compound: c1cc(-c2cnn3cc(-c4ccc(N5CCNCC5)cc4)cnc23)c2cccnc2c1 [LDN-212854]
- Dose.FC.LYZ.NS (ISC-enriched organoids [1]; Dose 0.08 uM, primary screen): 0.095 log 2 fold change
- Z.LYZ.NS (ISC-enriched organoids [1]; Dose 0.08 uM, primary screen): 0.823
- Dose.FC.LYZ.NS (ISC-enriched organoids [1]; Dose 0.40 uM, primary screen): 0.051 log 2 fold change
- Z.LYZ.NS (ISC-enriched organoids [1]; Dose 0.40 uM, primary screen): 0.446
- Dose.FC.LYZ.NS (ISC-enriched organoids [1]; Dose 2.00 uM, primary screen): −0.217 log 2 fold change
- Z.LYZ.NS (ISC-enriched organoids [1]; Dose 2.00 uM, primary screen): −1.885
- Dose.FC.LYZ.NS (ISC-enriched organoids [1]; Dose 10.00 uM, primary screen): −0.273 log 2 fold change
- Z.LYZ.NS (ISC-enriched organoids [1]; Dose 10.00 uM, primary screen): −2.375
- SSMD.LYZ.NS (ISC-enriched organoids [1]; [4]): 0.567
- SSMD.LYZ.NS (ISC-enriched organoids [1]; [5]): 0.395
- SSMD.LYZ.NS (ISC-enriched organoids [1]; [6]): −1.438
- SSMD.LYZ.NS (ISC-enriched organoids [1]; [7]): −1.649
- Dose.FC.LYZ.S (ISC-enriched organoids [2]; Dose 0.08 uM): 0.162 log 2 fold change
- Dose.FC.LYZ.S (ISC-enriched organoids [2]; Dose 0.40 uM): 0.026 log 2 fold change
- Dose.FC.LYZ.S (ISC-enriched organoids [2]; Dose 2.00 uM): −0.292 log 2 fold change
- Dose.FC.LYZ.S (ISC-enriched organoids [2]; Dose 10.00 uM): −0.399 log 2 fold change
- Z.LYZ.S (ISC-enriched organoids [2]; [8]): 1.050
- Z.LYZ.S (ISC-enriched organoids [2]; [9]): 0.167
- Z.LYZ.S (ISC-enriched organoids [2]; [10]): −1.888
- Z.LYZ.S (ISC-enriched organoids [2]; [11]): −2.582
- SSMD.LYZ.S (ISC-enriched organoids [2]; [8]): 0.799
- SSMD.LYZ.S (ISC-enriched organoids [2]; [9]): 0.136
- SSMD.LYZ.S (ISC-enriched organoids [2]; [10]): −1.525
- SSMD.LYZ.S (ISC-enriched organoids [2]; [11]): −1.672
- Dose.FC.CTG (ISC-enriched organoids [3]; Dose 0.08 uM, primary screen): 0.238 log 2 fold change
- Z.CTG (ISC-enriched organoids [3]; Dose 0.08 uM, primary screen): 0.568
- Dose.FC.CTG (ISC-enriched organoids [3]; Dose 0.40 uM, primary screen): 0.129 log 2 fold change
- Z.CTG (ISC-enriched organoids [3]; Dose 0.40 uM, primary screen): 0.309
- Dose.FC.CTG (ISC-enriched organoids [3]; Dose 2.00 uM, primary screen): −0.475 log 2 fold change
- Z.CTG (ISC-enriched organoids [3]; Dose 2.00 uM, primary screen): −1.134
- Dose.FC.CTG (ISC-enriched organoids [3]; Dose 10.00 uM, primary screen): −1.263 log 2 fold change
- Z.CTG (ISC-enriched organoids [3]; Dose 10.00 uM, primary screen): −3.018
- SSMD.CTG (ISC-enriched organoids [3]; [4]): 0.686
- SSMD.CTG (ISC-enriched organoids [3]; [5]): 0.242
- SSMD.CTG (ISC-enriched organoids [3]; [6]): −1.244
- SSMD.CTG (ISC-enriched organoids [3]; [7]): −1.589

Compound: CCn1c(-c2nonc2N)nc2c(C#CC(C)(C)O)ncc(OC[C@H]3CCCNC3)c21 [GSK690693]
- Dose.FC.LYZ.NS (ISC-enriched organoids [1]; Dose 0.08 uM, primary screen): 0.045 log 2 fold change
- Z.LYZ.NS (ISC-enriched organoids [1]; Dose 0.08 uM, primary screen): 0.388
- Dose.FC.LYZ.NS (ISC-enriched organoids [1]; Dose 0.40 uM, primary screen): 0.047 log 2 fold change
- Z.LYZ.NS (ISC-enriched organoids [1]; Dose 0.40 uM, primary screen): 0.409
- Dose.FC.LYZ.NS (ISC-enriched organoids [1]; Dose 2.00 uM, primary screen): 0.122 log 2 fold change
- Z.LYZ.NS (ISC-enriched organoids [1]; Dose 2.00 uM, primary screen): 1.060
- Dose.FC.LYZ.NS (ISC-enriched organoids [1]; Dose 10.00 uM, primary screen): −0.080 log 2 fold change
- Z.LYZ.NS (ISC-enriched organoids [1]; Dose 10.00 uM, primary screen): −0.698
- Dose.FC.LYZ.S (ISC-enriched organoids [2]; Dose 0.08 uM): 0.019 log 2 fold change
- Dose.FC.LYZ.S (ISC-enriched organoids [2]; Dose 0.40 uM): 0.155 log 2 fold change
- Dose.FC.LYZ.S (ISC-enriched organoids [2]; Dose 2.00 uM): 0.124 log 2 fold change
- Dose.FC.LYZ.S (ISC-enriched organoids [2]; Dose 10.00 uM): −0.153 log 2 fold change
- Dose.FC.CTG (ISC-enriched organoids [3]; Dose 0.08 uM, primary screen): 0.129 log 2 fold change
- Z.CTG (ISC-enriched organoids [3]; Dose 0.08 uM, primary screen): 0.308
- Dose.FC.CTG (ISC-enriched organoids [3]; Dose 0.40 uM, primary screen): 0.197 log 2 fold change
- Z.CTG (ISC-enriched organoids [3]; Dose 0.40 uM, primary screen): 0.470
- Dose.FC.CTG (ISC-enriched organoids [3]; Dose 2.00 uM, primary screen): −0.027 log 2 fold change
- Z.CTG (ISC-enriched organoids [3]; Dose 2.00 uM, primary screen): −0.064
- Dose.FC.CTG (ISC-enriched organoids [3]; Dose 10.00 uM, primary screen): −0.182 log 2 fold change
- Z.CTG (ISC-enriched organoids [3]; Dose 10.00 uM, primary screen): −0.434

From patent US20230398130A1, “METHODS AND COMPOSITIONS FOR DIFFERENTIATING STEM CELLS” (Massachusetts Institute of Technology, priority 2020, published 2023)
